# Experimental data reported in patent US20090325952A1, “PYRAZOLO[3,4-B]PYRIDINE COMPOUNDS, AND THEIR USE AS PDE4 INHIBITORS” (Glaxo Group Limited, priority 2006, published 2009).
# Counter-ions that a name gives are not always drawn.
# Target: PDE4D (human recombinant) (Homo sapiens, UniProt Q08499)
# Assay: Inhibition of PDE4D activity (FP assay)
# Format: biochemical
# Details: FP assay or generally similar assay; ±about 0.5 or more
# Source text: Human recombinant PDE4D (HSPDE4D3A) is disclosed in P. A. Baecker et al., “Isolation of a cDNA encoding a human rolipram-sensitive cyclic AMP phoshodiesterase (PDE IVD)”, Gene, 1994, 138, 253-256.
# The ability of compounds to inhibit catalytic activity at PDE4B (human recombinant) or PDE4D (human recombinant) can optionally be determined by IMAP Fluorescence Polarisation (FP) assay (IMAP Explorer kit, available from Molecular Devices Corporation, Sunnydale, Calif., USA; Molecular Devices code: R8062) in 384-well format.
# The IMAP FP assay is able to measure PDE activity in an homogenous, non-radioactive assay format. The FP assay uses the ability of immobilised trivalent metal cations, coated onto nanoparticles (tiny beads), to bind the phosphate group of Fl-AMP that is produced on the hydrolysis of fluorescein-labelled (Fl) cyclic adenosine mono-phosphate (Fl-cAMP) to the non-cyclic Fl-AMP form. […] Binding of Fl-AMP product to the beads (coated with the immobilised trivalent cations) slows the rotation of the bound Fl-AMP and leads to an increase in the fluorescence polarisation ratio of parallel to perpendicular light. Inhibition of the PDE reduces/inhibits this signal increase.
# Test compounds (small volume, e.g. ca. 0.5 to 1 microlitres (ul), suitably ca. 0.5 ul, of solution in DMSO) are preincubated at ambient temperature (room temperature, e.g. 19-23° C.) in black 384-well microtitre plates (supplier: NUNC, code 262260) with PDE enzyme in 10 mM Tris-HCl buffer pH 7.2, 10 mM MgCl2, 0.1% (w/v) bovine serum albumin, and 0.05% NaN3 for 10-30 minutes. The enzyme level is set by experimentation so that reaction is linear throughout the incubation. Fluorescein adenosine 3′,5′-cyclic phosphate (from Molecular Devices Corporation, Molecular Devices code: R7091) is added to give about 40 nM final concentration (final assay volume usually ca. 20-40 ul, suitably ca. 20 ul). Plates are mixed on an orbital shaker for 10 seconds and incubated at ambient temperature for 40 minutes. IMAP binding reagent (as described above, from Molecular Devices Corporation, Molecular Devices code: R7207) is added (60 ul of a 1 in 400 dilution in binding buffer of the kit stock solution) to terminate the assay. Plates are allowed to stand at ambient temperature for 1 hour. The Fluorescence Polarisation (FP) ratio of parallel to perpendicular light is measured using an Analyst™ plate reader (from Molecular Devices Corporation). For inhibition curves, 10 concentrations (e.g. 1.5 nM-30 uM) of each compound are assayed. Curves are analysed using ActivityBase and XLfit (ID Business Solutions Limited, 2 Ocean Court, Surrey Research Park, Guildford, Surrey GU2 7QB, United Kingdom). Results are expressed as pIC50 values.
# The PDE4D pIC50 values of some compounds or salts of the invention are as follows, as measured using an FP assay or a generally similar assay: • the salt of Example 1A1: PDE4D pIC50=about 10.7 (about 0.5 or more) (n=8). • the compound of Example 1B: PDE4D pIC50=about 10.4 (about 0.5 or more) (n=2). • the salt of Example 9: PDE4D pIC50>about 11.0 (± about 0.5 or more) (n=1). • the salt of Example 19: PDE4D pIC50=about 10.7 (±about 0.5 or more) (n=2). • the salt of Example 26: PDE4D pIC50=about 9.4 (±about 0.5 or more) (n=2). • the compound of Example 23A: PDE4D pIC50=about 10.5 (± about 0.5 or more) (n=1). Emesis: Some known PDE4 inhibitors can cause emesis and/or nausea to greater or lesser extents, especially after systemic exposure e.g. after oral administration (e.g. see Z. Huang et al., Current Opinion in Chemical Biology, 2001, 5: 432-438, see especially pages 433-434 and refs cited therein). Therefore, it would be preferable, but not essential, if a PDE4 inhibitory compound or salt of the invention were to cause only limited or manageable emetic side-effects, e.g. after inhaled or parenteral or external-topical administration. […]
# PDE4D (human recombinant), sequence (Q08499 1-673 isoform Q08499-2): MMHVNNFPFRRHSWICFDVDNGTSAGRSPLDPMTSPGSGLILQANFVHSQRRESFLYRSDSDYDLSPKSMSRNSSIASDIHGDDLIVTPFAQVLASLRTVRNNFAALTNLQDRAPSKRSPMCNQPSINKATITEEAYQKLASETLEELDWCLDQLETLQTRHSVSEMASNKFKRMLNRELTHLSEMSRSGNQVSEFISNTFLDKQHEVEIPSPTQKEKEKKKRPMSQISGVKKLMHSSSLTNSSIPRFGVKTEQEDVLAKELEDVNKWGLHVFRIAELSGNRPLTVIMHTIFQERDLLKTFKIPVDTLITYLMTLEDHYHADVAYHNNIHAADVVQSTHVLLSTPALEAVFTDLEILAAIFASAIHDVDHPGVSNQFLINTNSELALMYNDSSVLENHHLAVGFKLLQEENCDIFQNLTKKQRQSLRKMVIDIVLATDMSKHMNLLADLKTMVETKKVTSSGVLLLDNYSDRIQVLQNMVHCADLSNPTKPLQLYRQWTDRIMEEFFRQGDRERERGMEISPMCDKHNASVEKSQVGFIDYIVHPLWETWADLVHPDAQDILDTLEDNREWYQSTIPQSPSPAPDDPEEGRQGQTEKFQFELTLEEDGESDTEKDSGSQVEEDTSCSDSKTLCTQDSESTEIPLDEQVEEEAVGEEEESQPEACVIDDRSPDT
row,SMILES,PDE4D pIC50
1,"CCc1nc2c(cnn2CC)c(NC2CCN(C(N)=O)CC2)c1CNC(=O)c1ccc(NC(=O)CCCCCCCN(C)CCO)cc1.O=C(O)C(F)(F)F [Example 9, 4-({1,6-diethyl-5-[({[4-({8-[(2-hydroxyethyl)(methyl)amino]octanoyl}amino)phenyl]carbonyl}amino)methyl]-1H-pyrazolo[3,4-b]pyridin-4-yl}amino)-1-piperidinecarboxamide trifluoroacetate (salt)]",> 11.0

# Same assay, conditions: FP assay or generally similar assay; ±about 0.5 or more; read-out: PDE4D pIC50 (converted)
row,SMILES,IC50 [nM]
1,"CCc1nc2c(cnn2CC)c(NC2CCOCC2)c1CNC(=O)c1ccc(CCCCOCCCCN(C)CCO)cc1 [Example 19, formate salt of N-{[1,6-diethyl-4-(tetrahydro-2H-pyran-4-ylamino)-1H-pyrazolo[3,4-b]pyridin-5-yl]methyl}-4-[4-({4-[(2-hydroxyethyl)(methyl)amino]butyl}oxy)butyl]benzamide]",~0.02
2,"CCc1nc2c(cnn2CC)c(NC2CCN(C(N)=O)CC2)c1CNC(=O)c1ccc(CCCCOCCCCN2CCOCC2)cc1 [Example 23A, 4-({1,6-diethyl-5-[({[4-(4-{[4-(4-morpholinyl)butyl]oxy}butyl)phenyl]carbonyl}amino)methyl]-1H-pyrazolo[3,4-b]pyridin-4-yl}amino)-1-piperidinecarboxamide]",~0.0316

# Other lines, results leading:
row,IC50 [nM],SMILES
1,~0.02,"CCc1nc2c(cnn2CC)c(NC2CCOCC2)c1CNC(=O)c1ccc(NC(=O)CCCCCCCN(C)CCO)cc1 [Example 1A1, N-{[1,6-Diethyl-4-(tetrahydro-2H-pyran-4-ylamino)-1H-pyrazolo[3,4-b]pyridin-5-yl]methyl}-4-({8-[(2-hydroxyethyl)(methyl)amino]octanoyl}amino)benzamide dihydrochloride]"
2,~0.0398,"CCc1nc2c(cnn2CC)c(NC2CCOCC2)c1CNC(=O)c1ccc(NC(=O)CCCCCCCN(C)CCO)cc1 [Example 1B, N-{[1,6-diethyl-4-(tetrahydro-2H-pyran-4-ylamino)-1H-pyrazolo[3,4-b]pyridin-5-yl]methyl}-4-({8-[(2-hydroxyethyl)(methyl)amino]octanoyl}amino)benzamide]"
3,~0.398,"CCn1ncc2c(NC3CCOCC3)c(CNC(=O)c3ccc(NC(=O)CCCCCCCN(C)CCO)cc3)cnc21 [Example 26, Formate salt of N-{[1-ethyl-4-(tetrahydro-2H-pyran-4-ylamino)-1H-pyrazolo[3,4-b]pyridin-5-yl]methyl}-4-({8-[(2-hydroxyethyl)(methyl)amino]octanoyl}amino)benzamide]"
